Test results reported in US9943499B2, “Lipase inhibitors for the treatment of pancreatitis and organ failure” (priority 2011, dated 2018).
Entries after “also recorded” stand apart in the source; their conditions may differ. Where two headings read alike, the source gives them in different places.

Assays:
[1] = tested on: acinar cells; type: cell-based; conditions: for prevention of linoleic acid induced LDH leakage: 300 μM LA, 30 μM BAPTA or 1 mM EGTA, 90 minutes and 3 hours
Description: Harvesting cells: Primary acinar cells from wild type mice (C57B6) were harvested and used as described previously. Viability, confirmed by trypan blue exclusion, was >95%. […] These were used in the individual experiments. Data presented is representative of 3 or more experiments.
Acinar culture: Acinar culture was done as described previously to study inflammatory mediator upregulation.
Calcium imaging: Acinar cells loaded with fura-2AM as described previously on 35-mm glass bottom culture dishes (MatTek corporation, Ashland, Mass.) were imaged on temperature-controlled motorized stage of an Olympus IX81 inverted microscope (Olympus America Inc, Melville, N.Y.) with a 20×0.70 NA objective and a QImaging Retiga EXi CCD camera (QImaging, Burnaby, Canada). Baseline images were taken, and cells with extremely bright or dim fluorescence were omitted. Fatty acids (linolenic, linoleic, oleic, stearic, and palmitic, 100-1200 μM final concentration) were added, and cytosolic calcium levels [Cai] were determined by alternate excitation at 340 nm and 380 nm, measuring emission at 510 nm. […] Image acquisition was with the MetaMorph 7.5 Imaging System (Molecular Devices, Downington, Pa.) using the MetaMorph 6.3 software. The 340/380 emission ratio were averaged for 7-25 acini per field, with background subtraction. Data presented is a mean from separate experiments.
Visceral fat triglyceride composition: The visceral fat triglyceride composition analysis was done at Kennedy Krieger Institute (Baltimore, Md.). Briefly, total lipids were extracted by the method of Folch. The total lipids were weighed and then separated into 4 fractions by column chromatography on silicic acid. The second fraction has the mono-, di- and triglycerides, the non-esterified fatty acids, and ceramides; 400 micrograms of the second fraction was taken and purified, and non-esterified acids, triglycerides, and diglycerides were collected by thin-layer chromatography on Silica Gel G plates. The fatty acids were derivatized and analyzed by GCMS as their pentafluorbenzylbromide esters. ATP levels, cytochrome C release, and % LDH leakage were measured as previously described. Apoptosis was measured by active caspase-3 [western blotting, activity assays (Enzcheck, Invitrogen, Carlsbad, Calif.)], TUNEL assays, and Hoechst dye nuclear incorporation (8 mg/ml Hoechst 33342 added for 15 minutes after treatment). […] Results were reported as % of cells with given nuclear changes. These were counter stained with PI (1 μM) to stain necrotic cells (FIG. 7A, B, C) and imaged with a Zeiss Meta dual fluorescence confocal microscope. PI-positive cells were counted as late apoptosis or necrosis. […] Autophagy was studied by western blotting for LC3-I and II. RNA was extracted using Trizol (Invitrogen, Carlsbad, Calif.). mRNA levels of TNF-α, CXCL1, and CXCL2 were measured as described previously using real time-PCR performed on an ABI Prism 7000 Sequence Detection System (Applied Biosystems, Foster City, Calif.) on proprietary Taqman Gene Expression assay reagents (Applied Biosystems). Mitochondrial complex assays and citrate synthase assay were done as described previously.

[2] = tested on: Male Wistar rats; assay: Intraductal infusion of glyceryl trilinoleate (GTL) pancreatitis; type: in vivo; conditions: for mortality: intraductal GTL alone, GTL+orlistat 75 mg/ml, GTL+cetilistat 25 mg/ml, followed to day 5; for gross pancreatic appearance: hemorrhages and necrosis: intraductal GTL with or without lipase inhibitor
Experimental: Experiments were performed using a model, the technique of which is established and well described in rats (1, 2, 4, 7). This involves infusion of agents into the pancreatic duct to cause acute pancreatitis (1, 2, 4, 7). We will refer to this technique as “intraductal infusion”. We compared the severity of pancreatic damage and survival of rats after intraductal infusion of Glyceryl trilinoleate with and without the lipase inhibitor orlistat. In addition, we used a different lipase inhibitor-cetilistat (3, 6), and studied its efficacy in improving survival of rats in intraductal infusion pancreatitis induced with Glyceryl trilinoleate (GTL).
Male Wistar rats (250-350 gm), were anesthetized. Intraductal infusion of 0.1 ml (n=5) or 0.2 ml (n=5) of GTL (Sigma-Aldrich corporation) alone or GTL+orlistat (Caymen chemical, Ann Arbor, Mich.) (75 mg/ml, 0.1 ml n=5 or 0.2 ml n=5) or GTL+cetilistat (Jinan Wedo Industrial Co., Ltd., Jinan City, Shandong China) (25 mg/ml, 0.2 ml, n=10) was done as described previously (1, 2, 4, 7). All animals were given pain control (buprenorphine 200 mcg/kg BID), Cefazolin (100 mg/kg), and 10 cc saline subcutaneously BID as per the IACUC protocol. These were followed for survival.

[3] = in combination with GTL, at necropsy

O=C(O)CN(CC(=O)O)c1ccccc1OCCOc1ccccc1N(CC(=O)O)CC(=O)O [BAPTA]
prevention of linoleic acid induced LDH leakage [1]: partially prevented

O=C(O)CN(CCOCCOCCN(CC(=O)O)CC(=O)O)CC(=O)O [EGTA]
prevention of linoleic acid induced LDH leakage [1]: ineffective | LDH leakage ([1]; 300 μM linoleic acid, EGTA 1 mM, 90 minute): 21.2±8.3% | LDH leakage ([1]; 300 μM linoleic acid, EGTA 1 mM, 3 hour): 54.6±6.4%

CCCCC/C=C\C/C=C\CCCCCCCC(=O)OCC(COC(=O)CCCCCCC/C=C\C/C=C\CCCCC)OC(=O)CCCCCCC/C=C\C/C=C\CCCCC [GTL, glyceryl trilinoleate]
mortality ([2]; dead/total): 10/10 | first day mortality ([2]; dead/total, intraductal GTL without further treatment): 10/10 | gross pancreatic appearance: hemorrhages and necrosis [2]: caused severe hemorrhages, and near total necrosis of the gland within 24 hours

CCCCCCCCCCCCCCCCOc1nc2ccc(C)cc2c(=O)o1 [cetilistat]
mortality ([2]; dead/total): 2/10 | lung injury (TUNEL positive nuclei) [2, 3]: nearly completely prevented | renal injury (TUNEL positive nuclei) [2, 3]: nearly completely prevented; also recorded: absence of staining TUNEL positive nuclei | lung injury (TUNEL positive nuclei) ([2]; in combination with GTL, at necropsy, listed as Cetilistat): absence of TUNEL positive nuclei | gross pancreatic appearance: hemorrhages and necrosis [2]: prevented the hemorrhages and necrosis up to 5 days

CCCCC/C=C\C/C=C\CCCCCCCC(=O)O [linoleic acid]
acinar mRNA levels of TNF-α, CXCL1 and CXCL2 ([1]; 200 μM fatty acid (sub-lethal)): increased | autophagy (LC3-II) and apoptosis (active caspase3) ([1]; 300 μM linoleic acid): not activated

C/C=C(/C)C(=O)O[C@H]1C(C)=C2[C@H]([C@@H]1OC(=O)CCCCCCC)[C@@](C)(OC(C)=O)C[C@H](OC(=O)CCC)[C@@]1(O)[C@H]2OC(=O)[C@@]1(C)O [thapsigargin]
600 μM LA induced intra-acinar calcium (Cai) increase ([1]; 1 μM thapsigargin, EGTA 1 mM): prevents
